Data: ChEMBL document CHEMBL1159104, “Potent transglutaminase inhibitors, aryl beta-aminoethyl ketones” (Bioorg Med Chem Lett, 2010)

target: T1, Protein-glutamine gamma-glutamyltransferase (Cavia porcellus, UniProt Q7M0F8); assay: Inhibition of guinea pig liver transglutaminase
T1 sequence (Q7M0F8 whole entry): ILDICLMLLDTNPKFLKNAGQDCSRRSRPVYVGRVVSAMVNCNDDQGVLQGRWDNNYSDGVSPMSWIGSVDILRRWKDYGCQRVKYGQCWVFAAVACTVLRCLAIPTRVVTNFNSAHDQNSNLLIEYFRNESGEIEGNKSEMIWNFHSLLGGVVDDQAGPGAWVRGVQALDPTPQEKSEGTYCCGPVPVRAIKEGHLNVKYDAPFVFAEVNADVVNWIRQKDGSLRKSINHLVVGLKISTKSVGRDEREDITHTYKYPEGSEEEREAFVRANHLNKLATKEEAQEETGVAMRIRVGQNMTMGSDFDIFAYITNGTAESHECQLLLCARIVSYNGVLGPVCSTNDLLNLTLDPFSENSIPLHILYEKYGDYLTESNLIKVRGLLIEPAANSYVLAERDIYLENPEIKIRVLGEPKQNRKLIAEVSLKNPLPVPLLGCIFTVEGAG

Point of comparison: Cc1ccc(C(=O)CCN(C)CCO)o1, IC50 1400 nM. Against it:
- O=C(CCN(CCO)CCO)c1cnccn1 — within 1.5-fold, 1200 nM
- O=C(CCN(CCO)CCO)c1ccncc1 — 2.5-fold higher, 3500 nM
- CCCCN(CCO)CCC(=O)c1cccnc1 — 1.9-fold higher, 2700 nM
